Data from PubChem BioAssay (NCI).
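Briefly, cells in 96-well plates were exposed to five compound concentrations for 48 h, and endpoints were estimated by linear interpolation. GI50: concentration for 50% inhibition of growth. Definition used: TGI = concentration required for complete inhibition of growth.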

Experiments:
Test in all cases: NCI tumour cell line growth inhibition, 48 h
786-0 renal = test system: 786-0 renal
A498 renal = test system: A498 renal
A549 NSCLC = test system: A549 NSCLC
ACHN renal = test system: ACHN renal
BT-549 breast = test system: BT-549 breast
CAKI-1 renal = test system: CAKI-1 renal
CCRF-CEM leukemia = test system: CCRF-CEM leukemia
COLO 205 colon = test system: COLO 205 colon
DU-145 prostate = test system: DU-145 prostate
EKVX NSCLC = test system: EKVX NSCLC
HCC-2998 colon = test system: HCC-2998 colon
HCT-116 colon = test system: HCT-116 colon
HCT-15 colon = test system: HCT-15 colon
HL-60(TB) leukemia = test system: HL-60(TB) leukemia
HOP-62 NSCLC = test system: HOP-62 NSCLC
HOP-92 NSCLC = test system: HOP-92 NSCLC
HS 578T breast = test system: HS 578T breast
HT29 colon = test system: HT29 colon
IGROV1 ovarian = test system: IGROV1 ovarian
K-562 leukemia = test system: K-562 leukemia
KM12 colon = test system: KM12 colon
LOX IMVI melanoma = test system: LOX IMVI melanoma
M14 melanoma = test system: M14 melanoma
MALME-3M melanoma = test system: MALME-3M melanoma
MCF7 breast = test system: MCF7 breast
MDA-MB-231 breast = test system: MDA-MB-231 breast
MDA-MB-435 = test system: MDA-MB-435
MOLT-4 leukemia = test system: MOLT-4 leukemia
NCI-H226 lung = test system: NCI-H226 lung

In the case of N#Cc1c(NC(=O)CN2CCOCC2)sc2c1CCCC2, the GI50 (786-0 renal) is reported as > 25 µM, the TGI (786-0 renal) is reported as > 25 µM and the GI50 (A498 renal) is reported as 3.2 µM. For the same molecule, the TGI (A498 renal) was > 25 µM, the GI50 (A549 NSCLC) was > 25 µM and the TGI (A549 NSCLC) was > 25 µM. For the same molecule, the GI50 (ACHN renal) was > 25 µM, the TGI (ACHN renal) was > 25 µM and the GI50 (BT-549 breast) was > 25 µM. For the same molecule, the TGI (BT-549 breast) was > 25 µM, the GI50 (CAKI-1 renal) was > 25 µM and the TGI (CAKI-1 renal) was > 25 µM. For the same molecule, the GI50 (CCRF-CEM leukemia) was > 25 µM, the TGI (CCRF-CEM leukemia) was > 25 µM and the GI50 (COLO 205 colon) was > 25 µM. For the same molecule, the TGI (COLO 205 colon) was > 25 µM, the GI50 (DU-145 prostate) was > 25 µM and the TGI (DU-145 prostate) was > 25 µM. The GI50 (EKVX NSCLC) was > 25 µM, the TGI (EKVX NSCLC) was > 25 µM and the GI50 (HCC-2998 colon) was > 25 µM. The TGI (HCC-2998 colon) was > 25 µM, the GI50 (HCT-116 colon) was > 25 µM and the TGI (HCT-116 colon) was > 25 µM. The GI50 (HCT-15 colon) was > 25 µM, the TGI (HCT-15 colon) was > 25 µM and the GI50 (HL-60(TB) leukemia) was > 25 µM. For the same molecule, the TGI (HL-60(TB) leukemia) was > 25 µM, the GI50 (HOP-62 NSCLC) was > 25 µM and the TGI (HOP-62 NSCLC) was > 25 µM. For the same molecule, the GI50 (HOP-92 NSCLC) was > 25 µM, the TGI (HOP-92 NSCLC) was > 25 µM and the GI50 (HS 578T breast) was > 25 µM. The TGI (HS 578T breast) was > 25 µM, the GI50 (HT29 colon) was > 25 µM and the TGI (HT29 colon) was > 25 µM. The GI50 (IGROV1 ovarian) was > 25 µM, the TGI (IGROV1 ovarian) was > 25 µM and the GI50 (K-562 leukemia) was > 25 µM. For the same molecule, the TGI (K-562 leukemia) was > 25 µM, the GI50 (KM12 colon) was > 25 µM and the TGI (KM12 colon) was > 25 µM. The GI50 (LOX IMVI melanoma) was > 25 µM, the TGI (LOX IMVI melanoma) was > 25 µM and the GI50 (M14 melanoma) was > 25 µM. The TGI (M14 melanoma) was > 25 µM, the GI50 (MALME-3M melanoma) was > 25 µM and the TGI (MALME-3M melanoma) was > 25 µM. The GI50 (MCF7 breast) was > 25 µM, the TGI (MCF7 breast) was > 25 µM and the GI50 (MDA-MB-231 breast) was > 25 µM. The TGI (MDA-MB-231 breast) was > 25 µM, the GI50 (MDA-MB-435) was > 25 µM and the TGI (MDA-MB-435) was > 25 µM. The GI50 (MOLT-4 leukemia) was > 25 µM, the TGI (MOLT-4 leukemia) was > 25 µM and the GI50 (NCI-H226 lung) was > 25 µM. For the same molecule, the TGI (NCI-H226 lung) was > 25 µM.
